“And” between values parts separate entries of the source, which are not always exact repeats. Identical values can stand only once. Counter-ions that a name gives are not always drawn.
Tests used:
Lassa virus [1] = experiment: microbe, parasite or virus in culture; type: cell-based
Lassa virus [2] = experiment: microbe, parasite or virus in culture; type: cell-based; conditions: Mammarenavirus lassaense, Vero C1008
[3] = Mammarenavirus lassaense, Huh-7

Cl.NC(=O)c1cn([C@@H]2O[C@H](CO)[C@@H](O)[C@H]2O)c2ncnc(N)c12 [Oya2, 4-amino-7-((2R,3R,4S,5R)-3,4-dihydroxy-5-(hydroxymethyl)tetrahydrofuran-2-yl)-7H-pyrrolo[2,3-d]pyrimidine-5-carboxamide hydrochloride]
Inhibition (Lassa virus [1]; 0.0047 µM, hydrochloride): 28.74% and 26.14% and 27.5% | Inhibition (Lassa virus [1]; 0.0094 µM, hydrochloride): 21.1% and 20.68% and 22.57%

CN(C)CCOc1ccc(/C(=C(/CCCl)c2ccccc2)c2ccccc2)cc1 [Toremifene citrate, reference compound]
Inhibition (Lassa virus [1]; 0.4688 µM): 31.7829% and 32.93% and 31.98% and 27.3% and 32.75% | Inhibition (Lassa virus [1]; 0.9375 µM): 22.38% and 19.16% and 30.38% and 25.19% and 18.19% | Inhibition (Lassa virus [1]; 1.875 µM): 18.84% and 15.13% and 24.79% and 16.6% and 19.82% | Inhibition (Lassa virus [1]; 3.75 µM): 15.93% and 10.32% and 20.17% and 17.07% and 18.53% | inhibition at 0.4688 µM (Lassa virus [1]; [3]): 37.4% | inhibition at 0.9375 µM (Lassa virus [1]; [3]): 29.9% | inhibition at 1.875 µM (Lassa virus [1]; [3]): 20.9% | inhibition at 3.75 µM (Lassa virus [1]; [3]): 16.3%

NC(=O)c1cn([C@@H]2O[C@H](CO)[C@@H](O)[C@H]2O)c2ncnc(N)c12 [Oya1, 4-amino-7-((2R,3R,4S,5R)-3,4-dihydroxy-5-(hydroxymethyl)tetrahydrofuran-2-yl)-7H-pyrrolo[2,3-d]pyrimidine-5-carboxamide]
inhibition at 0.075 µM (Lassa virus [2]): 89.2% | inhibition at 0.15 µM (Lassa virus [2]): 100% | inhibition at 0.3 µM (Lassa virus [2]): 101% | inhibition at 0.6 µM (Lassa virus [2]): 101% | Inhibition (Lassa virus [1]; 0.0047 µM): 33.96% and 28.083% and 24.36% and 25.62% and 25.65% | Inhibition (Lassa virus [1]; 0.0094 µM): 26.74% and 30.9% and 23.28% and 15.83% and 22.14% and 20.065% | inhibition at 0.0047 µM (Lassa virus [1]; [3]): 32.3% | inhibition at 0.15 µM (Lassa virus [1]; [3]): 79.9% | inhibition at 0.3 µM (Lassa virus [1]; [3]): 97.6% | inhibition at 0.6 µM (Lassa virus [1]; [3]): 98.8%

Source: patent US20230285434A1 (priority 2020, published 2023)
